Measurements reported in patent US20220402862A1 (Intellia Therapeutics, Inc., priority 2019, published 2022).
Where “and” joins values, the source holds several entries; their conditions need not be identical. Equal values may be shown once.

Key:
[1] = RNA encapsulation efficiency of LNPs (Ribogreen fluorescence assay); format: physicochemical; conditions: LNP; for Encapsulation (%): sg:mRNA 1:1, N/P about 6, amine lipid/DSPC/cholesterol/PEG-2k-DMG 50/9/38/3, Table 2, Experiments 2-20
How it was run: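 Encapsulation efficiency is (Total RNA − Free RNA)/Total RNA. Free RNA was quantified by RiboGreen fluorescence (488/525 nm, ~10 min, RT, dark) in plain TE buffer; total RNA was quantified after LNP lysis with 0.2% Triton X-100, both against RNA standard curves.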

mouse TTR gene = experiment: In vivo editing in mouse liver, sgRNA targeting TTR (G282 or G502), % indel by NGS; set-up: species or system CD-1 female mice
Experimental: CD-1 female mice ranging from 6-10 weeks of age were used in each study. Animals were weighed and grouped according to body weight for preparing dosing solutions based on group average weight. LNPs were dosed via the lateral tail vein in a volume of 0.2 mL per animal (approximately 10 mL per kilogram body weight). The animals were periodically observed for adverse effects for at least 24 hours post dose. For studies measuring in vivo editing in liver, CD-1 female mice were dosed at 0.1 mg/kg unless otherwise noted. Animals were euthanized at 6 or 7 days by ex sanguination via cardiac puncture under isoflurane anesthesia. Liver tissue was collected from each animal for DNA extraction and analysis. Blood was collected into serum separator tubes or into tubes containing buffered sodium citrate for plasma as described herein. Cohorts of mice were measured for editing by Next-Generation Sequencing (NGS).
In brief, to quantitatively determine the efficiency of editing at the target location in the genome, genomic DNA was isolated and deep sequencing was utilized to identify the presence of insertions and deletions introduced by gene editing.
PCR primers were designed around the target site (e.g., within B2M), and the genomic area of interest was amplified. Additional PCR was performed according to the manufacturer's protocols (Illumina) to add the necessary chemistry for sequencing. The amplicons were sequenced on an Illumina MiSeq instrument. The reads were aligned to the mouse or rat reference genome (e.g., GRCm38) after eliminating those having low quality scores. The resulting files containing the reads were mapped to the reference genome (BAM files), where reads that overlapped the target region of interest were selected and the number of wild type reads versus the number of reads which contain an insertion, substitution, or deletion was calculated.
The editing percentage (e.g., the “indel efficiency” or “percent indels”) was defined as the total number of sequence reads with insertions or deletions over the total number of sequence reads, including wild type.
We assessed in vivo editing efficiency for materials delivered with formulations including various amine lipid compounds. Editing was measured using either G282 (SEQ ID No: 1) which targets the mouse TTR gene or G650 (SEQ ID No. 2) which targets the mouse B2M gene. Lipids described above were assessed for efficacy through in vivo editing experiments. LNPs were formulated at a 1:1 or 1:1.3 w/w ratio of sgRNA to Cas9 mRNA, and at an N/P ratio of about 6. Molar concentrations of lipids in the lipid component of the LNPs are used at mol % amine lipid/DSPC/cholesterol/PEG-2k-DMG of 50/9/38/3. The final LNPs were characterized to determine the encapsulation efficiency, polydispersity index, and average particle size according to the analytical methods provided above. Analysis of average particle size, polydispersity (PDI), total RNA content and encapsulation efficiency of RNA are shown in Table 2.
To assess whether the editing was dose responsive, experiments were performed in vivo at various LNP dose levels. Cas9 mRNA of Example 120 was formulated as LNPs with an sgRNA targeting TTR (G282, SEQ ID NO: 1; or G502, SEQ ID NO: 4).
We assessed in vivo delivery by measuring editing efficiency for materials delivered with formulations that included various amine lipid compounds. Cas9 mRNA (SEQ ID NO: 6) was formulated as LNPs with an sgRNA targetting the TTR mouse gene (SEQ ID NO: 4). LNPs were formulated at a 1:2 w/w ratio of sgRNA to Cas9 mRNA, and at an N/P ratio of about 6. Molar concentrations of lipids in the lipid component of the LNPs are used at mol % amine lipid/DSPC/cholesterol/PEG-2k-DMG of 50/9/38/3. The final LNPs compositions were characterized and analyzed as described in Example 120. Analysis of average particle size, polydispersity (PDI), total RNA content and encapsulation efficiency of RNA are shown in Table 6.

Transthyretin (TTR) = experiment: Serum TTR ELISA in mice after LNP dosing; format: in vivo, CD-1 female mice
How it was run: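 Serum mouse TTR was quantified by ELISA at 10,000-fold dilution for 0.1 mg/kg and 10,000/2,500-fold for 0.3 mg/kg. Samples came from female CD-1 mice (6–10 weeks) killed 6 or 7 days after a single intravenous LNP dose, usually 0.1 mg/kg.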

[2] = pKa measurement of unformulated amine lipid (fluorescence, method of Jayaraman et al.); format: physicochemical; conditions: 100 μM in 0.1 M phosphate buffer, pH 2.0-12.0
Experimental: The pKa of each amine lipid was determined according to the method in Jayaraman, et al. (Angewandte Chemie, 2012) with the following adaptations. […] Lipid was diluted to 100 μM in 0.1 M phosphate buffer (Boston Bioproducts) where the pH ranged from 2.0-12.0. Fluorescence intensity was measured using excitation and emission wavelengths of 321 nm and 448 nm.

[3] = Dynamic light scattering of LNPs: Z-average diameter, number average diameter, PDI; format: physicochemical; conditions: LNP
How it was run: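 Values reported are the Z-average (intensity-weighted mean size), the number-average diameter and the PDI (spread of sizes, 0 = fully uniform). All three came from dynamic light scattering of LNP preparations after dilution in PBS.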

[4] = sg:mRNA 1:1, N/P 6.0, 50/9/38/3, Table 4, Experiments 101-104
[5] = LNP i.v. 0.1 mg/kg, guide G282, Experiments 101-103
[6] = LNP i.v. 0.3 mg/kg, guide G282, Experiments 101-103
[7] = mouse, LNP i.v. 0.1 mg/kg, guide G282, Experiments 101-103
[8] = mouse, LNP i.v. 0.1 mg/kg, guide G282, Experiments 101-103, relative to TSS control
[9] = mouse, LNP i.v. 0.3 mg/kg, guide G282, Experiments 101-103
[10] = mouse, LNP i.v. 0.3 mg/kg, guide G282, Experiments 101-103, relative to TSS control
[11] = sg:mRNA 1:1, N/P about 6, 50/9/38/3, Table 2, Experiments 2-20
[12] = sg:mRNA 1:2, N/P about 6, 50/9/38/3, TTR sgRNA (SEQ ID NO: 4), Table 6, Experiments 106-107
[13] = guide G502, i.v. 0.1 mg/kg, sgRNA:Cas9 mRNA 1:2 w/w, experiments 106, 107
[14] = mouse serum TTR relative to TSS control, guide G502, i.v. 0.1 mg/kg
[15] = mouse serum, guide G502, i.v. 0.1 mg/kg
[16] = sg:mRNA 1:2, N/P about 6, 50/9/38/3, Table 6, Experiments 106-107

Row | SMILES | % E [1, 4] [%] | Encapsulation (%) [1] [%] | pKa [2] | Number mean (nm) [3, 4] [nm] | PDI [3, 4] | Z-avg (nm) [3, 4] [nm] | Number mean (nm) [3, 11] | % E [1, 12] [%] | Number mean (nm) [3, 16] [nm] | PDI [3, 16] | Z-avg (nm) [3, 16] [nm] | Editing Mean % Indel (mouse TTR gene; [5]) [%] | Editing Mean % Indel (mouse TTR gene; [6]) [%] | Serum TTR (Transthyretin (TTR); [7]) [µg/mL] | Serum TTR % TSS (Transthyretin (TTR); [8]) [%] | Serum TTR (Transthyretin (TTR); [9]) [µg/mL] | Serum TTR % TSS (Transthyretin (TTR); [10]) [%] | Editing Mean % Indel (mouse TTR gene; [13]) [%] | Serum TTR % TSS (Transthyretin (TTR); [14]) [%] | Serum TTR (Transthyretin (TTR); [15]) [µg/mL] | further results
1 | CCCCCC/C=C\COC(=O)CCCCCCCC(=O)OCC(COC(=O)CCC(OCCCCCCCC)OCCCCCCCC)COC(=O)OCCCN(CC)CC (stereo not shown) [Compound 54, (Z)-1-(3-((4,4-bis(octyloxy)butanoyl)oxy)-2-((((3-(diethylamino)propoxy)carbonyl)oxy)methyl)propyl) 9-(non-2-en-1-yl) nonanedioate] | 98 | 98 | 6.4 | 77.96 | 0.032 | 96.98 | 76.95 nm and 71.8 nm and 78.39 nm | – | – | – | – | 28.3 | 64.8 | 449 | 49 | 97 | 11 | – | – | – | Z-avg (nm) [3, 11]: 95.76 nm and 89.8 nm and 99.71 nm
2 | CCCCC/C=C\C/C=C\CCCCCCCC(=O)OCC(COC(=O)CCCN(CC)CC)COC(=O)CCC(OCCCCCCCC)OCCCCCCCC (stereo not shown) [Compound 29, 3-((4,4-bis(octyloxy)butanoyl)oxy)-2-(((4-(diethylamino)butanoyl)oxy)methyl)propyl (9Z,12Z)-octadeca-9,12-dienoate] | 99 | 98 | 6.84 | 70 | 0.003 | 84 | 66.92 nm and 64.63 nm | – | – | – | – | 31.4 | 54.8 | 663 | 48 | 205 | 15 | – | – | – | Z-avg (nm) [3, 11]: 82.41 nm and 78.63 nm
3 | CCCCCCCCCCCCCCCCCC(=O)OCC(COC(=O)CCC(OCCCCCCCC)OCCCCCCCC)COC(=O)OCCCN(CC)CC (stereo not shown) [Compound 114, 3-((4,4-bis(octyloxy)butanoyl)oxy)-2-((((3-(diethylamino)propoxy)carbonyl)oxy)methyl)propyl stearate] | – | – | 6.13 | – | – | – | – | 96 | 72 | 0.02 | 87 | – | – | – | – | – | – | 18.04 | 88.4 | 978.01 | –

Continued, in another order:

Row | % E [1, 4] [%] | Encapsulation (%) [1] [%] | pKa [2] | Number mean (nm) [3, 4] [nm] | PDI [3, 4] | Z-avg (nm) [3, 4] [nm] | Number mean (nm) [3, 11] | % E [1, 12] [%] | Number mean (nm) [3, 16] [nm] | PDI [3, 16] | Z-avg (nm) [3, 16] [nm] | SMILES | Editing Mean % Indel (mouse TTR gene; [5]) [%] | Editing Mean % Indel (mouse TTR gene; [6]) [%] | Serum TTR (Transthyretin (TTR); [7]) [µg/mL] | Serum TTR % TSS (Transthyretin (TTR); [8]) [%] | Serum TTR (Transthyretin (TTR); [9]) [µg/mL] | Serum TTR % TSS (Transthyretin (TTR); [10]) [%] | Editing Mean % Indel (mouse TTR gene; [13]) [%] | Serum TTR % TSS (Transthyretin (TTR); [14]) [%] | Serum TTR (Transthyretin (TTR); [15]) [µg/mL] | further results
4 | – | – | 5.96 | – | – | – | – | 97 | 76 | 0.01 | 93 | CCCCCCCC/C=C\CCCCCCCC(=O)OCC(COC(=O)CCC(OCCCCCCCC)OCCCCCCCC)COC(=O)OCCCN(CC)CC (stereo not shown) [Compound 115, 3-((4,4-bis(octyloxy)butanoyl)oxy)-2-((((3-(diethylamino)propoxy)carbonyl)oxy)methyl)propyl oleate] | – | – | – | – | – | – | 19.68 | 73.8 | 816.3 | –
5 | – | – | 6.04 | – | – | – | – | 99 | 74 | 0 | 90 | CC/C=C\C/C=C\C/C=C\CCCCCCCC(=O)OCC(COC(=O)CCC(OCCCCCCCC)OCCCCCCCC)COC(=O)OCCCN(CC)CC (stereo not shown) [Compound 116, 3-((4,4-bis(octyloxy)butanoyl)oxy)-2-((((3-(diethylamino)propoxy)carbonyl)oxy)methyl)propyl (9Z,12Z,15Z)-octadeca-9,12,15-trienoate] | – | – | – | – | – | – | 34.48 | 51.3 | 567.09 | –
